Reference: patent US20130030006A1, “AGENT FOR PREVENTING OR TREATING DISEASES ACCOMPANIED BY URINARY PAIN” (priority 2010, published 2013)

Tests used:
FAAH = molecular target: T1, FAAH (Homo sapiens, UniProt O00519); test: Measurement of IC50 value of substance inhibiting FAAH activity using human bladder epithelial carcinoma-derived cell line 5637; type: cell-based
T1 construct: Human bladder epithelial carcinoma-derived cell line, 5637 cells (HTB-9; host or cells: 5637 human bladder epithelial carcinoma cells
T1 sequence (O00519 1-579): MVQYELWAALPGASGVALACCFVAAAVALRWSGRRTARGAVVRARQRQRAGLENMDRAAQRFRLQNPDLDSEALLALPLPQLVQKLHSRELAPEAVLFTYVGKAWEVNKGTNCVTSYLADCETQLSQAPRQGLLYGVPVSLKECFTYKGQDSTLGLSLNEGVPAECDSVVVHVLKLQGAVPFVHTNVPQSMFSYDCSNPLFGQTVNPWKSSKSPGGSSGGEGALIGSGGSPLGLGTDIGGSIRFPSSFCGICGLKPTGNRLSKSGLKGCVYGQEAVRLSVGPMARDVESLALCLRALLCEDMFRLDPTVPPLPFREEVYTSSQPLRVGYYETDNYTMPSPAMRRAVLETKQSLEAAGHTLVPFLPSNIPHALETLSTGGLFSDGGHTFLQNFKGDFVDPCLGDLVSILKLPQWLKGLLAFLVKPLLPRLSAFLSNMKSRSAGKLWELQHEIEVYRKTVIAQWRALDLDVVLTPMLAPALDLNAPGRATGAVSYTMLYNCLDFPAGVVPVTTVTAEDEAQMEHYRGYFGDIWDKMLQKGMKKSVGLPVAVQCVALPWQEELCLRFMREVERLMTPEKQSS
Method: Screening of Substance Inhibiting FAAH Activity by Using Human Bladder Epithelial Carcinoma-Derived Cell Line
(1) Screening of Substance Inhibiting FAAH Activity
Human bladder epithelial carcinoma-derived cell line, 5637 cells (HTB-9; ATCC) were seeded in a 48-well cell culture plate in an amount of 1×10^5 cells/well by using RPMI 1640 medium (Invitrogen) containing 10% fetal bovine serum (HyClone), followed by incubation at 37° C. for 12 hours or longer, and then the cells in each well were washed with 400 μl of a buffer (Hank's Balanced Salt Solution, 20 mM Hepes-NaOH (pH 7.4)). A test substance dissolved in DMSO was added to a substrate solution (the above buffer containing 3 μCi/ml radiolabeled anandamide (anandamide [ethanolamine 1-^3H]) and 10 μM anandamide) so as to have a concentration from 0.003 nM to 30 nM, and as a control, DMSO was added alone. 100 μl/well of the substrate solution was added to the cells, followed by incubation in a CO2 incubator at 37° C. for 30 minutes. […] A substance decreasing a measured value compared to the control was selected as a substance inhibiting FAAH activity. […]

[1] = tested on: rat model with bladder pain; test: Rat model with bladder pain (cyclophosphamide pre-treated, bladder expansion); type: in vivo
Method: Action of Compound with Respect to Rat Model with Bladder Pain
The analgesic action of the compound against bladder pain was examined using a pathological model. Cyclophosphamide (150 mg/kg) was administered intraperitoneally, and after two days, physiological saline was injected under a non-restraint condition, at a rate of 45 ml/h via a cannula inserted transurethrally into the bladder, thereby rapidly expanding the bladder. Due to rapid expansion of the bladder, amplification of electromyogram spikes in external oblique abdominal muscle accompanying behavior relating to pain was confirmed. The injection amount at this point in time can be taken as a threshold of bladder pain, which makes it possible to evaluate drug efficacy with respect to the threshold of bladder pain. […] For the rats pre-treated with cyclophosphamide, the threshold of bladder pain before and after the administration of a test compound was measured, and the change in amount (Δ ml) was investigated. In order to obtain a value before administration, bladder expansion was performed until a stabilized threshold of bladder pain was consecutively obtained three times, and the average of the threshold of bladder pain of the final three times was taken as a measured value. […] The average of the threshold of bladder pain consecutively measured three times was taken as a value measured after administration.

[2] = tested on: rat model with testis pain; test: Rat model with testis pain (acetic acid into testes, writhing); type: in vivo
Method: Action of Compound with Respect to Rat Model with Testis Pain
The analgesic action of the compound against testis pain was examined using a pathological model. If 1% acetic acid is administered at 1 ml/kg to right and left testes of a rat by using an injection needle, pain behavior (writhing) accompanied by testis pain is observed, which makes it possible to evaluate drug efficacy on the pain behavior. […] The rats were transferred to a cylindrical acryl cage having a diameter of 30 cm and a height of 50 cm, and the number of times of pain behavior shown for 5 minutes to 15 minutes after the acetic acid administration was measured.

## NC(=O)c1cncc(OC(=O)N2CCC(CCc3cccc(C(=O)N4CCCCC4)c3)CC2)c1 [Compound I, 5-(aminocarbonyl)pyridin-3-yl 4-{2-[3-(piperidin-1-ylcarbonyl)phenyl]ethyl}piperidine-1-carboxylate]
FAAH
  IC50: 0.16 nM

## NC(=O)c1cncc(OC(=O)N2CCC(CCc3cccc(C(=O)N4CCCC4)c3)CC2)c1 [Compound J, 5-(aminocarbonyl)pyridin-3-yl 4-{2-[3-(pyrrolidin-1-ylcarbonyl)phenyl]ethyl}piperidine-1-carboxylate]
[1]; rat, in vivo, po
  Threshold of bladder pain (amount of physiological saline injected), compound-administered group: 0.150 Δ ml
[2]; rat, in vivo, po
  Number of times of pain behavior, compound-administered group: 9.5

## O=C(Nc1ccccc1)C1CCN(C(=O)Oc2cccnc2)CC1 [Compound L, pyridin-3-yl 4-(anilinocarbonyl)piperidine-1-carboxylate]
[1]; male SD rats, 3 mg/5 ml/kg oral, 120 minutes before measurement, change before vs after administration
  Threshold of bladder pain (amount of physiological saline injected), compound-administered group: 0.173 Δ ml
[2]; male Wistar rats, 3 mg/5 ml/kg oral, 120 minutes before measurement, counted 5 to 15 minutes after acetic acid
  Number of times of pain behavior, compound-administered group: 6.7
